Values after ≈ are worked out from the molar mass of the structure shown. Where two headings read alike, the source gives them in different places.
Key:
[1] = cited from earlier work
[2] = Solubility of busulfan in various solvents; format: physicochemical
From the text: The solvents chosen for the impregnation are those in which busulfan has appreciable solubility (acetone, acetonitrile, chloroform, dichloromethane, dimethyl carbonate) (Table 18).

Nc1ccn([C@@H]2O[C@H](CO)[C@@H](O)C2(F)F)c(=O)n1 [Gemcitabine]
Solubility in water [1]: water soluble

CC(=O)O[C@H]1C(=O)[C@@]2(C)[C@H]([C@H](OC(=O)c3ccccc3)[C@]3(O)C[C@H](OC(=O)[C@H](O)[C@@H](NC(=O)c4ccccc4)c4ccccc4)C(C)=C1C3(C)C)[C@]1(OC(C)=O)CO[C@@H]1C[C@@H]2O [Paclitaxel]
Solubility in ethanol and in DMSO ([1]; ethanol, DMSO): about 50 g/L

NC(N)=O [Urea]
Solubility in water ([1]; 20° C.): 1080 mg/mL (≈ 18000 mM)

CS(=O)(=O)OCCCCOS(C)(=O)=O [busulfan, 1,4-butanediol dimethylsulfonate]
Busulfan solubility ([2]; Chloroform): 8 mg/mL
Busulfan solubility ([2]; Ethanol): <<<4 mg/ml
Busulfan solubility ([2]; Ether): <<<4 mg/ml
Busulfan solubility ([2]; Hexane): <<<4 mg/ml
Busulfan solubility ([2]; Methanol): <<<4 mg/ml
Busulfan solubility ([2]; Tetrahydrofuran): ~5 mg/mL
Busulfan solubility ([2]; Toluene): ~4 mg/mL

— patent US10738068B2, “Organic/inorganic hybrid nanoparticulates made from iron carboxylates” (CENTRE NATIONAL DE LA RECHERCHE SCIENTIFIQUE—CNRS, priority 2007, dated 2020)
